Experimental findings from patent US20210078985A1, “COMPOUND, PREPARATION METHOD THEREFOR, AND USE THEREOF” (MEDSPRING INTERNATIONAL LIMITED, priority 2018, published 2021) are described below.

Data set [1] concerns Caco-2 cells. Put plainly: In vitro membrane permeability test (Caco-2 monolayer). The procedure:
Caco-2 cell model is a human colonic adenocarcinoma cell line having a structure and function similar to differentiated intestinal epithelial cells. It has microvilli and other structures, and contains enzyme system related to intestinal brush border epithelium.
The cryopreserved Caco-2 cells were thawed in 37° C. water bath. After resuscitation, the cells were added into DMEM medium containing 10% FBS, and cultured in an incubator with 37° C., 5% CO2 and 90% relative humidity. The culture medium was changed every other day. After 1-2 days of growth, the cells were digested with 0.25% trypsin-EDTA (0.2%) mixed digestive solution at 37° C. and passaged in a certain proportion. The cell generation used in the experiments was 40-60 passages.
When cells reached 80% confluency, they were digested and suspended in complete medium and seeded on Millicell plate at 1×10^6 cells·ml^−1. After that, the culture medium was changed once every 2 days and after 1 week, was changed once every 1 day. After 5 days of culture, the resistance value reaches plateau (>200 Ω·cm^2), which can be then used for membrane permeability experiment.
The compound was diluted to 5 μmol·L^−1 by HBSS. Before experiments, the culture medium in each well was discarded, washed twice with HBSS solution at 37° C., and then incubated in a 37° C. incubator. […] The emission wavelength was set at 430 nm and the excitation wavelength was set at 530 nm.
Before experiments, Millicell inoculated with cells was soaked in HBSS solution at 37° C. for an appropriate time period, and the Millicell was washed slightly to remove the attachment on the cell surface. The permeability from cavity surface to basal surface: 0.35 ml HBSS solution containing drug was added to the top side (AP) and 1.2 ml blank HBSS solution was added to the bottom side (BL). The Millicell was incubated while shaking at 50 r·min^−1 at 37° C., a 50 μL sample was taken in the lower layer at 0, 30, 90 and 120 min, and a same volume of blank HBSS solution as added back. 3 holes were repeated for each concentration. 50 μL internal standard solution and 350 μL ethyl acetate were added to the sample, which was shaken and mixed, centrifuged at 12000 rpm for 5 min. 300 μL of supernatant was taken out, dried by evaporation, and re-dissolved in 50 μL acetonitrile. 10 μL sample was taken out for testing. For the permeability from the base surface to the cavity surface, the drug was added to the bottom side (BL), and the blank HBSS solution was added to the top side (AP). The following steps are the same as the permeability test operation from the cavity surface to the base surface.
The apparent permeability coefficient (Papp) of drugs reflects the ability of drugs to pass through monolayer cells and the speed and degree of drug absorption. It can be calculated by the following formula: […]
Herein, ΔQ is the amount of drug penetration during the time period of Δt, A is the cell surface area, which is the area of supporting membrane (0.6 cm^2) in this model, and Co is the initial concentration. The unit of Papp is usually expressed in cm/h (cm·h^−1) or cm/s (cm·s^−1).
LC/MS was used for testing. The standard curve ([…]-10000 nM) was used to quantify the concentration of each sample.
On the technique in general: Caco-2 monolayers are a common model of the intestinal barrier.

The procedure of data set [2]:
Solubility of compounds was determined according to the method established in the general instructions of Part II of Pharmacopoeia 2010 edition. […] The dissolution was observed within 30 minutes.
(§1) The dissolution was then observed within 30 minutes.
as §1

Data set [3] addresses T1, CHO membranes expressing CCR4 (Homo sapiens, UniProt P51679).
T1 construct: expressed in transfected cells; host or cells: CHO cell membranes
T1 sequence (P51679 1-360): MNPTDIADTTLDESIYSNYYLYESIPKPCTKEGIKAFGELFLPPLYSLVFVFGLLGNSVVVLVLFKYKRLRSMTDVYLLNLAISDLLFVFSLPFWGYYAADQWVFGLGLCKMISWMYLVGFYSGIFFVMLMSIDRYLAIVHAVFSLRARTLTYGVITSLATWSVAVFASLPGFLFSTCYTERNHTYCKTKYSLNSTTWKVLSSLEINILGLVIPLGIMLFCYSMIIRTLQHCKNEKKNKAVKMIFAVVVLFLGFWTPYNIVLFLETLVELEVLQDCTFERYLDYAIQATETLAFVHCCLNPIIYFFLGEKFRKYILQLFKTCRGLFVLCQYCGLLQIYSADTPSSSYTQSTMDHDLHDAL
The experiment in a line: In vitro CCR4 antagonistic activity, competitive [35S]-GTPγS test. Type of data set: biochemical. The procedure: The potency of antagonists was tested by a competitive test of [35S]-GTPγS. Briefly, CHO membranes expressing CCR4 were homogenized through a 23 G needle. These membranes were then attached to WGA-coated Leadseeker SPA beads in a testing buffer (20 mM HEPES, 10 mM MgCl2, 100 mM NaCl, 0.05% BSA, 40 ug/ml saponin, adjusted to pH 7.4 with KOH 5M) to produce 3 μg/well final […] (FAC) membrane and 250 μg/well FAC bead solution. After 60 minutes of pre-coupling on ice, GDP was added to obtain 4.4 uM FAC. Then [35S]-GTPS, which was prepared in the testing buffer, was added into the bead/membrane solution to thereby obtain 0.33 nM FAC. […] The suspension of beads/membranes/[35S]-GTPγS/agonist was distributed into a white Greiner polypropylene 384-pore plate (45 μL/well), which contained 0.5 μl of compound. The final testing solution (45.5 μL) was sealed, centrifuged and incubated at room temperature for 3-6 hours. Then, the plate was read with Viewlux and the luminescence was plotted as the percentage of the maximum inhibitory response induced by IC100 standard antagonist.

Values after ≈ are worked out from the molar mass of the structure shown. Where two headings read alike, the source gives them in different places.

Turning to `COc1cccc2c1c(NS(=O)(=O)c1ccc(Cl)s1)nn2Cc1cccc(CNC(=O)C(C)(C)O)c1.[Na]` [Compound of formula II, N-[(3-{[3-{[(5-chloro-2-thienyl)sulfonyl]amino}-4-(methoxy)-1H-indazole-1-yl]methyl}phenyl)methyl]-2-hydroxy-2-methylpropionamide sodium], the “absorption classification from Papp” value in data set [1] (Caco-2, Papp>2×10^−6 = good-absorption drug) is listed as “easy-to-absorb compounds”. The “Papp (apparent permeability coefficient)” value in data set [1] (Caco-2 monolayer, direction not given, sodium) is recorded as 68.82 ×10^−6. Besides, the “Solubility in water under 25° C. ± 2° C.” value in data set [2] (water, 25° C. ± 2° C., visual dissolution within 30 minutes) was 500 mg/mL. Moreover, the “IC50, times higher than that of compound 6” value in data set [3] (relative to compound 6, same experimental conditions) came out at 6 times.

Regarding `COc1cccc2c1c(NS(=O)(=O)c1ccc(Cl)s1)nn2Cc1cccc(CNC(=O)C(C)(C)O)c1` [Compound 6, N-[(3-{[3-{[(5-chloro-2-thienyl)sulfonyl]amino}-4-(methoxy)-1H-indazole-1-yl]methyl}phenyl)methyl]-2-hydroxy-2-methylpropionamide, reference compound], the “absorption classification from Papp” value in data set [1] (Caco-2) is on record as “difficult-to-absorb compound”. Also, in data set [1] (human, Caco-2), the “Papp (apparent permeability coefficient)” value is recorded as 0.13 ×10^−6. For the same compound, the “Solubility in water under 25° C. ± 2° C.” value in data set [2] stood at 0.02 mg/mL (≈ 36.4 µM).

In the case of `COc1cccc2c1c(NS(=O)(=O)c1ccc(Cl)s1)nn2Cc1cccc(CNC(=O)C(C)(C)O)c1` [Compound of formula III, N-[(3-{[3-{[(5-chloro-2-thienyl)sulfonyl]amino}-4-(methoxy)-1H-indazole-1-yl]methyl}phenyl)methyl]-2-hydroxy-2-methylpropionamide potassium], in data set [1] (Caco-2), the “absorption classification from Papp” value was “easy-to-absorb compounds” and the “permeability, times higher than compound 6” value is reported as 530-780 times. In addition, in data set [2], the “Solubility in water under 25° C. ± 2° C.” value stood at 40 mg/mL and the “solubility, times higher than that of compound 6” value is listed as 2000-25000 times. Moreover, in data set [3], the “IC50, times higher than that of compound 6” value was determined as 210 times.
